System: MMP-11
Test: Immunohistochemistry of MMP-11 in respiratory tract tissue of sodium hypochlorite aerosol-treated rabbits
Format: in vivo, New Zealand albino rabbits
From the text: It is known that the factors TGF-α, TGF-β 1, TGF-β 2, TGF-β 3, SPARC, MMP-3; MMP-7, MMP-9, MMP-11, MMP-13 and MMP-14, TGF-β, NF-kB, EGF, MMP-9, VEGF and TNF-α which are produced by lung cells (pneumocytes, fibroblasts and vascular endothelial cells) and inflammatory cells (macrophages, lymphocytes and polymorphonuclear leukocytes) are involved in the pathophysiology and development of said respiratory tract diseases. […] Herein, 27 New Zealand albino rabbits (New Zealand White Rabbit) with an initial average weight about 3 kg were used in this example. All subjects were administered an aerosol of a solution consisting of a mixture of water and sodium hypochlorite (35 g sodium hypochlorite per liter of water) at a rate of 5 mL of said solution by inhalation three times a day for 7 days (days 1 to 7 of experimentation). Subsequently, from days 3 to 7, a group of 3 rabbits (Group 1) was administered an oral dose of 10 mg/kg body weight per day, another group of 3 rabbits (Group 2) was administered an oral dose of 40 mg/kg body weight per day, a third group (Group 3) was administered an oral dose of 80 mg/kg body weight per day and a fourth group (Group 4) was administered an oral dose of 100 mg/kg body weight per day. […] This mixture was administered as an aerosol by inhalation, also from days 3 to 7, to a group of 3 rabbits (group 5) at a dose of 0.05 mg/kg body weight per day, to another group of three rabbits (Group 6) at a dose of 0.1 mg/kg body weight per day, to another group of three rabbits (Group 7) at a dose of 0.2 mg/kg body weight per day and to another group of three rabbits (Group 8) at a dose of 0.4 mg/kg body weight per day. A placebo consisting only of olive oil was administered from days 3 to 7 to a control group of 3 rabbits (placebo group). In parallel, 3 rabbits were kept under identical conditions but were not administered any treatment nor the aforementioned sodium hypochlorite solution (control group). […] On day 7 of the experiment all animals were euthanized and necropsied. […] Samples were taken at the peripheral level of the lung parenchyma, just below the pleural surface. Tissue samples were also taken from the nasal cavity, pharynx, larynx and bronchi. Immunohistochemistry studies were performed for all samples to evaluate the levels of the markers TGF-α, TGF-β 1, TGF-β 2, TGF-β 3 SPARC, MMP-3; MMP-7, MMP-9, MMP-11, MMP-14, TGF-β, TNF-α and VEGF. In said immunohistochemistry studies, a sample of each sample was dehydrated by treatment with increasing concentrations of ethanol and finally xylene. Subsequently said dried samples were embedded in paraffin, thus creating a block. Said paraffin blocks were cut on a microtome to a thickness of 5 μm, and the resulting sections (slices) were placed on slides suitable for conducting immunohistochemistry techniques. Subsequently, the sections were deparaffinised by immersion in xylene and then rehydrated through immersion in a series of solutions containing decreasing concentrations of ethanol and, finally, water. […] The samples were then allowed to cool to room temperature over 10 minutes. Endogenous peroxidase activity was blocked by treatment with 3% hydrogen peroxide over 30 min at room temperature. […] In order to verify the expression of NK1 receptors, the cell samples were incubated in the presence of anti-NK1 antibodies ([…], Sigma-Aldrich) diluted 1:1000 at 4° C. overnight. After this time they were washed in 0.05M Tris buffer at room temperature. Subsequently, Envision System-HRP (Dako) reagents were added for 30 min at room temperature. Once this time had expired, the samples were again washed with 0.05 M Tris buffer, and immunoreactivity was visualized by light microscopy with a chromogenic solution with 3,3'-diaminobenzidine (DAB+; Dako, USA). In order to differentiate the cell nuclei, these were lightly stained with haematoxylin. Samples that were not incubated with the primary antibody, but wherein this was replaced by a non-immune serum were used as negative controls. […]

C[C@@H](OC1OCCN(Cc2nc(=O)[nH][nH]2)C1c1ccc(F)cc1)c1cc(C(F)(F)F)cc(C(F)(F)F)c1 (stereo in doubt) [Aprepitant, 5-([(2R,3S)-2-((R)-1-[3,5-bis(trifluoromethyl)phenyl]ethoxy)-3-(4-fluorophenyl)morpholino]methyl)-1H-1,2,4-triazol-3(2H)-one]
Percent increase in MMP-11 with respect to the control group (bronchial tissue, Group 1, oral 10 mg/kg per day): 784.45% | Percent increase in MMP-11 with respect to the control group (bronchial tissue, Group 2, oral 40 mg/kg per day): 673.45% | Percent increase in MMP-11 with respect to the control group (bronchial tissue, Group 3, oral 80 mg/kg per day): 563.45% | Percent increase in MMP-11 with respect to the control group (bronchial tissue, Group 4, oral 100 mg/kg per day): 453.34% | % Med G5/C: percent increase in marker MMP-11 with respect to the control group (bronchial tissue, Group 5): 653.23% | % Med G6/C: percent increase in marker MMP-11 with respect to the control group (bronchial tissue, Group 6): 438.43% | % Med G7/C: percent increase in marker MMP-11 with respect to the control group (bronchial tissue, Group 7): 342.56% | % Med G8/C: percent increase in marker MMP-11 with respect to the control group (bronchial tissue, Group 8): 159.42% | Percent increase in MMP-11 with respect to the control group (laryngeal tissue, Group 1, oral 10 mg/kg per day): 789.61% | Percent increase in MMP-11 with respect to the control group (laryngeal tissue, Group 2, oral 40 mg/kg per day): 576.17% | Percent increase in MMP-11 with respect to the control group (laryngeal tissue, Group 3, oral 80 mg/kg per day): 456.89% | Percent increase in MMP-11 with respect to the control group (laryngeal tissue, Group 4, oral 100 mg/kg per day): 324.89% | Percent increase in MMP-11 with respect to the control group (laryngeal tissue, Group 5, inhalation 0.05 mg/kg per day): 768.34% | Percent increase in MMP-11 with respect to the control group (laryngeal tissue, Group 6, inhalation 0.1 mg/kg per day): 504.34% | Percent increase in MMP-11 with respect to the control group (laryngeal tissue, Group 7, inhalation 0.2 mg/kg per day): 203.23% | Percent increase in MMP-11 with respect to the control group (laryngeal tissue, Group 8, inhalation 0.4 mg/kg per day): 167.36% | Percent increase in MMP-11 with respect to the control group (lung tissue, Group 1, oral 10 mg/kg per day): 522.19% | Percent increase in MMP-11 with respect to the control group (lung tissue, Group 2, oral 40 mg/kg per day): 416.18% | Percent increase in MMP-11 with respect to the control group (lung tissue, Group 3, oral 80 mg/kg per day): 339.86% | Percent increase in MMP-11 with respect to the control group (lung tissue, Group 4, oral 100 mg/kg per day): 251.62% | Percent increase in MMP-11 with respect to the control group (lung tissue, Group 5, inhalation 0.05 mg/kg per day): 520.05% | Percent increase in MMP-11 with respect to the control group (lung tissue, Group 6, inhalation 0.1 mg/kg per day): 222.75% | Percent increase in MMP-11 with respect to the control group (lung tissue, Group 7, inhalation 0.2 mg/kg per day): 169.57% | Percent increase in MMP-11 with respect to the control group (lung tissue, Group 8, inhalation 0.4 mg/kg per day): 128.28% | Percent increase in MMP-11 with respect to the control group (nasal cavity tissue, Group 1, oral 10 mg/kg per day): 1,023.73% | Percent increase in MMP-11 with respect to the control group (nasal cavity tissue, Group 2, oral 40 mg/kg per day): 609.60% | Percent increase in MMP-11 with respect to the control group (nasal cavity tissue, Group 3, oral 80 mg/kg per day): 392.70% | Percent increase in MMP-11 with respect to the control group (nasal cavity tissue, Group 4, oral 100 mg/kg per day): 270.95% | Percent increase in MMP-11 with respect to the control group (nasal cavity tissue, Group 5, inhalation 0.05 mg/kg per day): 1,215.12% | Percent increase in MMP-11 with respect to the control group (nasal cavity tissue, Group 6, inhalation 0.1 mg/kg per day): 489.76% | Percent increase in MMP-11 with respect to the control group (nasal cavity tissue, Group 7, inhalation 0.2 mg/kg per day): 266.47% | Percent increase in MMP-11 with respect to the control group (nasal cavity tissue, Group 8, inhalation 0.4 mg/kg per day): 133.33% | Percent increase in MMP-11 with respect to the control group (pharyngeal tissue, Group 1, oral 10 mg/kg per day): 1,387.65% | Percent increase in MMP-11 with respect to the control group (pharyngeal tissue, Group 2, oral 40 mg/kg per day): 1,980.45% | Percent increase in MMP-11 with respect to the control group (pharyngeal tissue, Group 3, oral 80 mg/kg per day): 980.34% | Percent increase in MMP-11 with respect to the control group (pharyngeal tissue, Group 4, oral 100 mg/kg per day): 670.45% | Percent increase in MMP-11 with respect to the control group (pharyngeal tissue, Group 5, inhalation 0.05 mg/kg per day): 1,324.23% | Percent increase in MMP-11 with respect to the control group (pharyngeal tissue, Group 6, inhalation 0.1 mg/kg per day): 904.21% | Percent increase in MMP-11 with respect to the control group (pharyngeal tissue, Group 7, inhalation 0.2 mg/kg per day): 529.34% | Percent increase in MMP-11 with respect to the control group (pharyngeal tissue, Group 8, inhalation 0.4 mg/kg per day): 109.43%

— patent US20170290774A1, “NEUROKININ-1 RECEPTOR ANTAGONIST COMPOSITION FOR TREATMENT OF DISEASES AND CONDITIONS OF THE RESPIRATORY TRACT” (PLUS VITECH, S.L., priority 2014, published 2017)
